Measurements taken from the supplement of paper PMC12420376.

Key:
KURAMOCHI = test: drug sensitivity score (DSS2) on cancer cell count; higher = more sensitive; extreme values may be limits of the assay; details: 72 h
Summary of the method: (§1)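 Ovarian cancer cells were grown alone or in 1:1 direct co-culture with lung or skin fibroblasts. They were plated onto 384-well plates pre-spotted acoustically with 528 approved and investigational compounds at 5 concentrations, then treated for 72 h. Cells were fixed, immunostained for CK8/18 with Hoechst, and imaged at 10× (4 fields) to count cancer cells. A drug sensitivity score (DSS2) was derived in Breeze from 4-parameter logistic fits, with screen quality checked by Z'.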

OVCAR8 = test: as above; details: 72 h
Summary of the method: as §1

[1] = co-cultured fibroblast: BJHTERT
[2] = co-cultured fibroblast: none (monoculture)

| SMILES | drug sensitivity score (KURAMOCHI; [1]) | drug sensitivity score (KURAMOCHI; co-cultured fibroblast: WI38) | drug sensitivity score (KURAMOCHI; [2]) | drug sensitivity score (OVCAR8; [1]) | drug sensitivity score (OVCAR8; co-cultured fibroblast: WI38) | drug sensitivity score (OVCAR8; [2]) |
| --- | --- | --- | --- | --- | --- | --- |
| Cc1ccc(Nc2nccc(N(C)c3ccc4c(C)n(C)nc4c3)n2)cc1S(N)(=O)=O [Pazopanib] | 2 DSS | 2 DSS | 5.9 DSS | 0 DSS | 3.5 DSS | 0 DSS |
| C[C@@H]1CN(Cc2ccc(F)cc2)[C@@H](C)CN1C(=O)c1cc2c(C(=O)C(=O)N(C)C)cn(C)c2cc1Cl [Talmapimod] | 1.2 DSS | 0 DSS | 0 DSS | 2.8 DSS | 0 DSS | 1.4 DSS |
| CC1(C)CCC(c2ccc(Cl)cc2)=C(CN2CCN(c3ccc(C(=O)NS(=O)(=O)c4ccc(N[C@H](CCN5CCOCC5)CSc5ccccc5)c(S(=O)(=O)C(F)(F)F)c4)cc3)CC2)C1 [Navitoclax] | 2.4 DSS | 3.1 DSS | 1.1 DSS | 7.5 DSS | 0 DSS | 0.3 DSS |
| Nc1cc(C(F)(F)F)c(-c2cc(N3CCOCC3)nc(N3CCOCC3)n2)cn1 [Buparlisib] | 9.1 DSS | 8 DSS | 7.9 DSS | 6.9 DSS | 3.4 DSS | 9.3 DSS |
| CC(C)(O)CNc1nc(Nc2ccnc(C(F)(F)F)c2)nc(-c2cccc(C(F)(F)F)n2)n1 [Enasidenib] | 0.3 DSS | 0 DSS | 0 DSS | 0 DSS | 0 DSS | 0 DSS |
| COc1cc2ncnc(Nc3ccc(F)c(Cl)c3)c2cc1NC(=O)/C=C/CN1CCCCC1 [Dacomitinib] | 7 DSS | 3.7 DSS | 8.3 DSS | 5.5 DSS | 0 DSS | 3.2 DSS |
| COc1cc(Nc2ncc(F)c(Nc3ccc4c(n3)NC(=O)C(C)(C)O4)n2)cc(OC)c1OC [Tamatinib] | 0.6 DSS | 3.7 DSS | 6 DSS | 0 DSS | 4.3 DSS | 0.9 DSS |
| C=CC(=O)N1CCC(Oc2cc3c(Nc4ccc(Cl)c(Cl)c4F)ncnc3cc2OC)CC1 [Poziotinib] | 4.4 DSS | 7.9 DSS | 3 DSS | 4 DSS | 0.2 DSS | 0.3 DSS |
| O=C(/C=C/c1cccc(S(=O)(=O)Nc2ccccc2)c1)NO [Belinostat] | 15.1 DSS | 18.6 DSS | 27.5 DSS | 17.7 DSS | 18.2 DSS | 22.5 DSS |
| O=C(Nc1c[nH]nc1-c1nc2ccc(CN3CCOCC3)cc2[nH]1)NC1CC1 [AT9283] | 15.8 DSS | 16 DSS | 19.6 DSS | 10.7 DSS | 14.2 DSS | 9 DSS |
| COc1cc(N2CCC(N3CCN(C)CC3)CC2)ccc1Nc1ncnc(Nc2ccccc2S(=O)(=O)C(C)C)n1 [ASP3026] | 7.7 DSS | 2 DSS | 5.7 DSS | 8.6 DSS | 3.1 DSS | 4.7 DSS |
| O[C@H]1CC[C@H](Nc2ncc3nc(Nc4c(F)cc(F)cc4F)n([C@H]4CCOC4)c3n2)CC1 [Tanzisertib] | 2 DSS | 0 DSS | 0.2 DSS | 1.4 DSS | 0 DSS | 1 DSS |
| CN(C)CCCOc1ccc(-c2ccc3ncc4c(c3c2)n(C2CCOCC2)c(=O)n4C)cn1 [AZD0156] | 2.5 DSS | 1.4 DSS | 0.7 DSS | 6.4 DSS | 6.8 DSS | 0.5 DSS |
| COc1ccc(S(=O)(=O)Nc2cccnc2Nc2ccc(O)cc2)cc1 [ABT-751] | 14.5 DSS | 17.3 DSS | 17.9 DSS | 18.7 DSS | 15.9 DSS | 19.3 DSS |
| O=C(CCNC(=O)c1ccc(OC(F)(F)F)cc1)N[C@@H]1CCCc2ccccc21 [ML390] | 3.4 DSS | 2.9 DSS | 4 DSS | 8.5 DSS | 0 DSS | 8.1 DSS |
| O=C(CCCCCCNC(=O)c1cnc(N(c2ccccc2)c2ccccc2)nc1)NO [Rocilinostat] | 6.7 DSS | 6.9 DSS | 7.1 DSS | 10.4 DSS | 5.2 DSS | 18.6 DSS |
| CC1(COc2ccc3c(c2)ncn3-c2ccc3cccc(N4CCC(N)CC4)c3n2)COC1 [Crenolanib] | 12.6 DSS | 10.5 DSS | 18 DSS | 4.7 DSS | 14.6 DSS | 5.5 DSS |
| Cc1cnc(Nc2ccc(OCCN3CCCC3)cc2)nc1Nc1cccc(S(=O)(=O)NC(C)(C)C)c1 [Fedratinib] | 7.9 DSS | 3.7 DSS | 2.8 DSS | 4.9 DSS | 5.2 DSS | 7.2 DSS |
| CC(=O)c1cnc2ccc(-c3cc(Cl)c(O)c(Cl)c3)nc2c1N[C@H]1CC[C@H](CN(C)C)CC1 [OTS167] | 14.9 DSS | 13.5 DSS | 11.7 DSS | 20.6 DSS | 16.1 DSS | 19.2 DSS |
| Cc1cn(-c2cc(NC(=O)c3ccc(C)c(Nc4nccc(-c5cnccn5)n4)c3)cc(C(F)(F)F)c2)cn1 [Radotinib] | 0 DSS | 0 DSS | 0 DSS | 0 DSS | 6.2 DSS | 1.2 DSS |
| Cc1[nH]c2ccccc2c1CCNCc1ccc(/C=C/C(=O)NO)cc1 [Panobinostat] | 14.8 DSS | 19.4 DSS | 21.8 DSS | 28.1 DSS | 20.1 DSS | 26.4 DSS |
| CC1(C)CCC(CN2CCN(c3ccc(C(=O)NS(=O)(=O)c4ccc(NCC5CCOCC5)c([N+](=O)[O-])c4)c(Oc4cnc5[nH]ccc5c4)c3)CC2)=C(c2ccc(Cl)cc2)C1 [Venetoclax] | 0 DSS | 0 DSS | 0 DSS | 0 DSS | 0 DSS | 2.3 DSS |
| O=C(Nc1nc2cccc(-c3ccc(CN4CCS(=O)(=O)CC4)cc3)n2n1)C1CC1 [Filgotinib] | 5.1 DSS | 5.2 DSS | 2.4 DSS | 2.9 DSS | 1.3 DSS | 1.7 DSS |
| O=C(NOC[C@H](O)CO)c1ccc(F)c(F)c1Nc1ccc(I)cc1F | 8.8 DSS | 0.8 DSS | 3.3 DSS | 7.7 DSS | 0 DSS | 10.6 DSS |
| CC[C@@]1(O)C(=O)OCc2c1cc1n(c2=O)Cc2cc3c(CN(C)C)c(O)ccc3nc2-1 [Topotecan] | 20.9 DSS | 25.7 DSS | 28 DSS | 22.2 DSS | 23.1 DSS | 30.4 DSS |
| Cn1cc(CNCC2CCN(c3ncc(C(=O)NO)cn3)CC2)c2ccccc21 [Quisinostat] | 15 DSS | 17 DSS | 18.9 DSS | 22.6 DSS | 15.3 DSS | 22.4 DSS |
| CCCCNc1ncc(C(=O)NCc2ccc(-n3ccnc3)cc2)c(NC2CCC(O)CC2)n1 (configuration not stated) [UNC2881] | 2.4 DSS | 3 DSS | 0.4 DSS | 0.2 DSS | 1.1 DSS | 0 DSS |
